Tests used:
[1] = target: Phosphatidylinositol 4-phosphate 3-kinase C2 domain-containing subunit beta (Homo sapiens, UniProt O00750); assay: Inhibition of PIK3C2B in human MOLM16 cells; format: cell-based
[2] = target: Mitogen-activated protein kinase kinase kinase 20 (Homo sapiens, UniProt Q9NYL2); assay: Inhibition of ZAK in human MOLM16 cells; format: cell-based
[3] = test system: HT-1080; assay: Antitumor activity against human HT-1080 cells xenografted in BALB/c nude mouse assessed as mean tumor growth inhibition at 3 mg/kg administered twice a day for 14 days; format: functional; conditions: HT-1080, 336 h, time 14 day, read-out: TGI
[4] = test system: HT-1080; assay: Antitumor activity against human HT-1080 cells xenografted in BALB/c nude mouse assessed as mean tumor growth inhibition at 1 mg/kg administered twice a day for 14 days; format: functional; conditions: HT-1080, 336 h, time 14 day, read-out: TGI
[5] = test system: HT-1080; assay: Antitumor activity against human HT-1080 cells xenografted in BALB/c nude mouse assessed as mean tumor growth inhibition at 0.3 mg/kg administered twice a day for 14 days; format: functional; conditions: HT-1080, 336 h, time 14 day, read-out: TGI
[6] = target: T1, Serine/threonine-protein kinase Nek1 (Homo sapiens, UniProt Q96PY6); assay: Inhibition of NEK1 in human MOLM16 cells; format: cell-based
T1 sequence (Q96PY6 whole entry): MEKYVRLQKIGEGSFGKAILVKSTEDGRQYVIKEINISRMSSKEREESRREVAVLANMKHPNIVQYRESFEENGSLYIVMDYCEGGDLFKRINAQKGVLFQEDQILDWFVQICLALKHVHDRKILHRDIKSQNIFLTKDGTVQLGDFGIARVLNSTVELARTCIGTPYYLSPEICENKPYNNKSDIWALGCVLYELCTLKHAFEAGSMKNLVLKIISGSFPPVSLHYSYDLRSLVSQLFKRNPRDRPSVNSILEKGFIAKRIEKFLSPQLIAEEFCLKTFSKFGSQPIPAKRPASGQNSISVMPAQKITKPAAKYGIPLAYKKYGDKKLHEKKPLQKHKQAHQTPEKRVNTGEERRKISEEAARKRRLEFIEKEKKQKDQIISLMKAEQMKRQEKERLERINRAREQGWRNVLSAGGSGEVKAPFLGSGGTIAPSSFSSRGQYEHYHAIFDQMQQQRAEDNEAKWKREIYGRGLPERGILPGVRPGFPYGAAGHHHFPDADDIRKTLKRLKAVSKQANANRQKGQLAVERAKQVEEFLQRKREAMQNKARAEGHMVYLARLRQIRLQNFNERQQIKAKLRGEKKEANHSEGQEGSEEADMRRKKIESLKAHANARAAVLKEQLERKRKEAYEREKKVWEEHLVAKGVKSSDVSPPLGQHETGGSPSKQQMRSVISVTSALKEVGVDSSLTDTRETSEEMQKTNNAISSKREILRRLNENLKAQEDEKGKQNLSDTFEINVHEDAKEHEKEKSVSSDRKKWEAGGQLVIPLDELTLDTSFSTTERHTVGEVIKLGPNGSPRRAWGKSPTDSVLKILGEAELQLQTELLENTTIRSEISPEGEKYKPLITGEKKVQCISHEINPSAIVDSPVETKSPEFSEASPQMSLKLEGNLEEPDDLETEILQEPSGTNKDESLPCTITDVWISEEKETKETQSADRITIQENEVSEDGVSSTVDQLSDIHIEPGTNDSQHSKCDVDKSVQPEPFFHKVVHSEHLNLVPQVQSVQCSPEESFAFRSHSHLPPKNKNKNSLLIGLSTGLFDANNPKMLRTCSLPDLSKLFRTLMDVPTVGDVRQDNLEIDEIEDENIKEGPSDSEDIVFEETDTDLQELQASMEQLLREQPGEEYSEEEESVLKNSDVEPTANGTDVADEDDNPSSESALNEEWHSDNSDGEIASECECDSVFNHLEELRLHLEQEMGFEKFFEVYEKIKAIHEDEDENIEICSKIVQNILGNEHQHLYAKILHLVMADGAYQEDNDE

[7] = Unbound fraction in Sprague-Dawley rat plasma at 1 mg/kg, iv measured upto 24 hrs; format: ADME, organism-based
[8] = Unbound volume of distribution at steady state in Sprague-Dawley rat at 1 mg/kg, iv measured upto 24 hrs; format: ADME, organism-based; conditions: in vivo
[9] = target: Receptor-interacting serine/threonine-protein kinase 3 (Homo sapiens, UniProt Q9Y572); assay: Inhibition of RIPK3 in human MOLM16 cells; format: cell-based
[10] = Cmax in BALB/c mouse at 3 mg/kg, po and 1 mg/kg, iv measured upto 24 hrs; format: ADME, organism-based; conditions: in vivo
[11] = Volume of distribution at steady state in BALB/c mouse at 3 mg/kg, po and 1 mg/kg, iv measured upto 24 hrs; format: ADME, organism-based; conditions: in vivo
[12] = Unbound AUC in Sprague-Dawley rat at 3 mg/kg, po measured upto 24 hrs; format: ADME, organism-based; conditions: in vivo
[13] = target: Cytochrome P450 3A4 (Homo sapiens, UniProt P08684); assay: Inhibition of CYP3A4 in human liver microsomes using midazolam substrate incubated for 5 mins in presence of NADPH by UPLC-MS/MS analysis
[14] = Protein binding in HEK293 cells assessed as free fraction; format: ADME, cell-based; conditions: human
[15] = Unbound AUC in BALB/c mouse at 3 mg/kg, po measured upto 24 hrs; format: ADME, organism-based; conditions: in vivo
[16] = Unbound fraction in BALB/c mouse plasma at 3 mg/kg, po and 1 mg/kg, iv measured upto 24 hrs; format: ADME, organism-based
[17] = Antitumor activity against human MOLM16 cells xenografted in BALB/c nude mouse assessed as tumor growth inhibition at 0.3 mg/kg administered twice a day for 17 days; format: functional, MOLM-16; conditions: MOLM16, 408 h, time 17 day, read-out: TGI
[18] = target: T2, Dual specificity mitogen-activated protein kinase kinase 5 (Homo sapiens, UniProt Q13163); assay: Inhibition of MAP2K5 in human MOLM16 cells; format: cell-based
T2 sequence (Q13163 whole entry): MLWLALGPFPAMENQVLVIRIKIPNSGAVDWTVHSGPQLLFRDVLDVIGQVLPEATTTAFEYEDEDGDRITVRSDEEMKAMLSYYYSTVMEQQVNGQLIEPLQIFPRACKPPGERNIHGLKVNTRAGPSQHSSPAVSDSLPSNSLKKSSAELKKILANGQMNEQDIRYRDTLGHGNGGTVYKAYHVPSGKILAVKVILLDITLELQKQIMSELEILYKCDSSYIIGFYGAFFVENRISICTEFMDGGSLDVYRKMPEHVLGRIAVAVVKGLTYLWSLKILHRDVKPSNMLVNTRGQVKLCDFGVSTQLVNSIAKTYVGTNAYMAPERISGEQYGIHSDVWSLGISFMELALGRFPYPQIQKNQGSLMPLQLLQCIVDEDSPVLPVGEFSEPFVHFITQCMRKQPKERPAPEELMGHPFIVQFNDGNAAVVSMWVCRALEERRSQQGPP

[19] = Oral bioavailability in BALB/c mouse at 3 mg/kg measured upto 24 hrs; format: ADME, organism-based; conditions: in vivo
[20] = Toxicity in BALB/c nude mouse xenografted with human HT-1080 cells assessed as change in body weight at 0.3 to 3 mg/kg administered twice a day for 14 days; format: organism-based; conditions: in vivo, 336 h, dose 0.3-3 mg/kg, time 14 day

Chain of Receptor-interacting serine/threonine-protein kinase 3 (Q9Y572 whole entry): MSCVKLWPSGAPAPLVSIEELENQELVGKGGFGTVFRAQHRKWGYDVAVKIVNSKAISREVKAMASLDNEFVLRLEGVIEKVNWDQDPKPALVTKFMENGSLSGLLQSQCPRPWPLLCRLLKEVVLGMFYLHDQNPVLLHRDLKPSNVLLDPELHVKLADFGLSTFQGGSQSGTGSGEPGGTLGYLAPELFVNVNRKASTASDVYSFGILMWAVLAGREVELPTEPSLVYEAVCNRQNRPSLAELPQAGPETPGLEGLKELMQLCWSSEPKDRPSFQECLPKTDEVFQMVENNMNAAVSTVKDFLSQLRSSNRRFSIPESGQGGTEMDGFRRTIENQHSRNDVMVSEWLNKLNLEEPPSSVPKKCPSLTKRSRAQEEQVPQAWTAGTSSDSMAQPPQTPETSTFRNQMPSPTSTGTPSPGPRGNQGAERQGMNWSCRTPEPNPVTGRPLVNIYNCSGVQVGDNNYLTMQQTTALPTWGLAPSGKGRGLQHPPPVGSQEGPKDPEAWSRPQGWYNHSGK
Chain of Mitogen-activated protein kinase kinase kinase 20 (Q9NYL2 whole entry): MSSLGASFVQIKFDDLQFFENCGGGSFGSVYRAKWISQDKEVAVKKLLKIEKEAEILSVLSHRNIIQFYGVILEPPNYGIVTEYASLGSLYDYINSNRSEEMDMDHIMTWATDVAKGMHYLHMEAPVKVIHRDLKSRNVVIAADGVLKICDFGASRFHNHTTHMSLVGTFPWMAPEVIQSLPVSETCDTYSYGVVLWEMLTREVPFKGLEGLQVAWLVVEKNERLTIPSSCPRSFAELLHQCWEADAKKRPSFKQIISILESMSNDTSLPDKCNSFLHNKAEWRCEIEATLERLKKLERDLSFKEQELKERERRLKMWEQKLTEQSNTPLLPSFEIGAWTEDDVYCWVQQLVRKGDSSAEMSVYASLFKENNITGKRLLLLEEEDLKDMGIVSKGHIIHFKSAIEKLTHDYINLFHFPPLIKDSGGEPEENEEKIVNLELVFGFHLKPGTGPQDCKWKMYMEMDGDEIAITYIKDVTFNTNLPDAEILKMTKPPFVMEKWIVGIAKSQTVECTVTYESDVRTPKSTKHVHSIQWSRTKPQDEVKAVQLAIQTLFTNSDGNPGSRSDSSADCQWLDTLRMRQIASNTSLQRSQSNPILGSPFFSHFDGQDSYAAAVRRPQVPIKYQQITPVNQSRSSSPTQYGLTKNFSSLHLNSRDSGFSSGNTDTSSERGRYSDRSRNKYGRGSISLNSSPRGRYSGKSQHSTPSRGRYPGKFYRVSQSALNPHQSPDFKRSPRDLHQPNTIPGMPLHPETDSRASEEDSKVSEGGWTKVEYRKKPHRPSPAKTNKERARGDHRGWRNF
Chain of Phosphatidylinositol 4-phosphate 3-kinase C2 domain-containing subunit beta (O00750 whole entry, the tested form may be a part): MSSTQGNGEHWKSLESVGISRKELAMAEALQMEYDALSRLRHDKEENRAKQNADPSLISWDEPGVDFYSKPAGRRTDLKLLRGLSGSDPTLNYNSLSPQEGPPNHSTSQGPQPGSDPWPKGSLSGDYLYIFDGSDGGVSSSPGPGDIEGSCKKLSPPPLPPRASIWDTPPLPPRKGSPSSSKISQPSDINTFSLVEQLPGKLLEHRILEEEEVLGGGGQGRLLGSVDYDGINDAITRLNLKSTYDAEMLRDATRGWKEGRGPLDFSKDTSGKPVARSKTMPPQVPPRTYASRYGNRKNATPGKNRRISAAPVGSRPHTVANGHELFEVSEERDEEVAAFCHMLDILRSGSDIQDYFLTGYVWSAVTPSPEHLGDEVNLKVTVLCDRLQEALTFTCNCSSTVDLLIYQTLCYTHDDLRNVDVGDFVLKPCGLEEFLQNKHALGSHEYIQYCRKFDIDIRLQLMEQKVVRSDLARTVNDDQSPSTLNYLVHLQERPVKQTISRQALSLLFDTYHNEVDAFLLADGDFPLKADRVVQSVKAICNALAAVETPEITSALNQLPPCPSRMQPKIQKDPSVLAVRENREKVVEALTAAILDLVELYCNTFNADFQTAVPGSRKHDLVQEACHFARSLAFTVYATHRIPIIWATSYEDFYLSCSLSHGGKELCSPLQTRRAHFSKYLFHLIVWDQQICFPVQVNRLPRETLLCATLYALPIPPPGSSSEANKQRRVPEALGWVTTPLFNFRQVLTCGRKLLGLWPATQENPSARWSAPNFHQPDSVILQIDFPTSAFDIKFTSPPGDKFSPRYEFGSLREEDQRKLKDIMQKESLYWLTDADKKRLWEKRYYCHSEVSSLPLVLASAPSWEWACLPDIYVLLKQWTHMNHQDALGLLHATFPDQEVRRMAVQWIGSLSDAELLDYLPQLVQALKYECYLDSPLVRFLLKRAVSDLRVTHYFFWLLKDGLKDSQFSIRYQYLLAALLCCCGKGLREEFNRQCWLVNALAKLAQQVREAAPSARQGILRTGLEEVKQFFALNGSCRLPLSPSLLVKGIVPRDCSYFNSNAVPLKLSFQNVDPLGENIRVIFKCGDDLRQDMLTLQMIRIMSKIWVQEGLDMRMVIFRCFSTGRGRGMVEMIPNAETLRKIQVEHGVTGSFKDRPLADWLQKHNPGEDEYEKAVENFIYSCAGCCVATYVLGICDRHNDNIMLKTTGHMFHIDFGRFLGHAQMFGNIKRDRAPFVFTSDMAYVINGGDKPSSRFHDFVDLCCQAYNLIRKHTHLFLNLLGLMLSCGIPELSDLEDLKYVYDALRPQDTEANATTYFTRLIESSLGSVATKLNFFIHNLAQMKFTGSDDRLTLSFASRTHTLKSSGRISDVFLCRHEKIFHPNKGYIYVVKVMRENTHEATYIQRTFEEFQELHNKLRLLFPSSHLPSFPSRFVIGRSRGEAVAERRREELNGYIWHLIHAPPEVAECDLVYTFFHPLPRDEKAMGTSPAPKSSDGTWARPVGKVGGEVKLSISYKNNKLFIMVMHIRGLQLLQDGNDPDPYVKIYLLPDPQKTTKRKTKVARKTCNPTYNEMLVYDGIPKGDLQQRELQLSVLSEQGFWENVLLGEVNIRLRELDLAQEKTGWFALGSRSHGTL
Chain of Cytochrome P450 3A4 (P08684 whole entry): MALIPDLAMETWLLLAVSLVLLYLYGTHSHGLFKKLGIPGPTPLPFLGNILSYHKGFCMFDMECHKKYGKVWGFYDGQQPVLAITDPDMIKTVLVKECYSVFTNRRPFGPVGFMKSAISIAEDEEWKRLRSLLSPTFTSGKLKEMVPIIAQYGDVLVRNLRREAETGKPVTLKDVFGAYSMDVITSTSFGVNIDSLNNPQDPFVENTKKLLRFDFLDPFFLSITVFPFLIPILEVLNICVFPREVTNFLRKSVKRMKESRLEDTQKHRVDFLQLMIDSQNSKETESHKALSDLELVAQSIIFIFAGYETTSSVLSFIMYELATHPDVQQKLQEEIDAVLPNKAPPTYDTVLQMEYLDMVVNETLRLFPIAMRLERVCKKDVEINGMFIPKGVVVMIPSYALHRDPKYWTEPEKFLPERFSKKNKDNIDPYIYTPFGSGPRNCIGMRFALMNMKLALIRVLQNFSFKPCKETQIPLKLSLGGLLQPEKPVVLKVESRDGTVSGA

IC50 [1]: 3.4 µM
IC50 [2]: 47 nM
IC50 [6]: 9.3 µM
fraction unbound at 24 h [7]: 0.001
fVdss [8]: 130 L/kg
IC50 [9]: 9 µM
Cmax [10]: 26.1 µM
Vdss [11]: 0.12 L/kg
fAUC [12]: 48 nM·h
IC50 [13]: 33 µM
fraction unbound [14]: 0.35
fAUC [15]: 130 nM·h
fraction unbound at 24 h [16]: 0.002
IC50 [18]: 2900 nM
F [19]: 66%
SMILES: CNC(=O)c1ncn2cc(-c3c(F)ccc(NS(=O)(=O)c4cc(Cl)cnc4OC)c3F)ncc12
inhibition in vivo at 3 mg/kg [3]: 84%
inhibition in vivo at 1 mg/kg [4]: 80%
inhibition in vivo at 0.3 mg/kg [5]: 18%
inhibition in vivo at 0.3 mg/kg [17]: 66%
Activity [20]: Non-Toxic

From ChEMBL document CHEMBL5543122, “Discovery of HC-7366: An Orally Bioavailable and Efficacious GCN2 Kinase Activator” (J Med Chem, 2024)
